Measured values taken from US10780061B2, “Composition comprising farnesol and use thereof” (Daegu Gyongbuk Institute of Science and Technology, priority 2014, dated 2020).

Experiments:
[1] = for reference; cited from earlier work
PARIS, PGC-1α [2] = assay: Western blotting of hind limb muscles, high fat diet for 3 months; assay type: in vivo, mouse; conditions: high fat diet with 0.5% compound
Text: (§1) To prepare the PGC-1α-inhibited model, 3-month-old mouse (female, body weight of 20 g) is fed with high fat diet, in which fat is increased to 60%, compared to a negative control group, for 5 days (short-term effect) or 3 months (long-term effect). The negative control group is fed with a general diet. Farnesol is mixed in the high fat diet at a content of 0.5% (weight of farnesol/weight of diet). A positive control group is fed with high fat diet containing a type II diabetes drug, metformin at a content of 0.5% (weight of metformin/weight of diet). Mice are fed with the general diet, the high fat diet, and the high fat diet containing farnesol or metformin for 3 months, and then hind limbs are removed to analyze muscle differentiation and mitochondrial enzyme activity.

PARIS, PGC-1α [3] = assay: Immunoprecipitation for PGC-1α expression and PARIS-farnesylation, short-term high fat diet; assay type: in vivo, mouse; conditions: high fat diet with 0.5% compound, 5 days, gastrocnemius muscles
Text: as §1
The effects of high fat diet and farnesol and metformin on PGC-1α induction by PARIS-farnesylation are evaluated. To analyze effect of short-term high fat diet, mice are fed with the above conditions for 5 days. Immunoblotting of PGC-1α and PARIS in gastrocnemius muscles of the mice is performed.
In this regard, PARIS-farnesylation is normalized to the immunoprecipitated PARIS expression level.

SDH enzyme activity = assay: SDH staining of hind limb muscles, high fat diet model; assay type: in vivo, mouse; conditions: high fat diet with 0.5% compound, 3 months
Text: as §1

[4] = test system: Myh2a-positive muscle fibers; assay: Myh2a immunostaining of hind limb muscles, high fat diet (PGC-1α-inhibited) model; assay type: in vivo, mouse; conditions: high fat diet with 0.5% compound, 3 months
Text: as §1
In FIG. 6C, SD represents a standard diet as a negative control group, HFD represents a high fat diet, and HFD+Farnesol or HFD-metformin represents farnesol or metformin-added HFD, respectively.

SMILES	ID50 [1] [mg/kg]	decreased PGC-1α expression by high fat diet (PARIS, PGC-1α [2])	increased PARIS level by high fat diet (PARIS, PGC-1α [2])	reduction in PARIS-farnesylation by high fat diet (PARIS, PGC-1α [3])	reduction in PGC-1α expression by high fat diet (PARIS, PGC-1α [3])	percentage of muscle fibers showing increased SDH enzyme activity (SDH enzyme activity)	percentage of Myh2a-postive muscle fibers [4]
CC(=O)Oc1ccccc1C(=O)O [aspirin]	250	–	–	–	–	–	–
CN(C)C(=N)N=C(N)N [metformin, reference compound]	–	inhibited	inhibited	inhibited	inhibited	increased	significantly increases
